Test results as given in patent US9815846B2 (Merck Sharp & Dohme Corp., priority 2014, dated 2017).

Target: human TrkA receptor (Homo sapiens (Human), UniProt P04629)
Test: DiscoverX PathHunter TrkA functional assay (NGF-stimulated U2OS cells)
Assay type: cell-based
Details: U2OS cells expressing human TrkA-PK, Shc1-EA and p75NTR; compound 1 h, then NGF at ~80% of maximal response for 3 h; luminescence

Sequence of human TrkA receptor (P04629 33-796): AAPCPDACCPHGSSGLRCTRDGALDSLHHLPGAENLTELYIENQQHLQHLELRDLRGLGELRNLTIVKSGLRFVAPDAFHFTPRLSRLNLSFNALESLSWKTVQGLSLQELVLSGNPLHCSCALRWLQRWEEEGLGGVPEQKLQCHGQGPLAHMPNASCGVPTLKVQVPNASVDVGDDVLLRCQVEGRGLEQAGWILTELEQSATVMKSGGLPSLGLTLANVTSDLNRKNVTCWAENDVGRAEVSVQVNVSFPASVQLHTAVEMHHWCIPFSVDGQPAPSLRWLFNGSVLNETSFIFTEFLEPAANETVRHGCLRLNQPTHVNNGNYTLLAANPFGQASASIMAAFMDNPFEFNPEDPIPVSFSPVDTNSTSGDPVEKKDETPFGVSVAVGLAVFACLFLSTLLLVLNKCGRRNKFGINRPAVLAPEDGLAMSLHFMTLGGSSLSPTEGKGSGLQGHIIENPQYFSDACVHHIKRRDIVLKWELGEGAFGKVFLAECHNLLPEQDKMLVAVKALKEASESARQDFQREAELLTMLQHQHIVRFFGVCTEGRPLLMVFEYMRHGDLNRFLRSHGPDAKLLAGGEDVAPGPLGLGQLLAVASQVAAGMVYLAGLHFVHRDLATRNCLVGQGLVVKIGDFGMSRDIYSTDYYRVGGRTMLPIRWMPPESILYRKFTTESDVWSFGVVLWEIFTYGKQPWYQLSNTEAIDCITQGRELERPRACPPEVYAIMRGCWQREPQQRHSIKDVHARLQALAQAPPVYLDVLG

Row | Structure (SMILES) | IC50 [nM]
1 | Cn1ccc(-c2cc(C(=O)Nc3cnc(CCN4CCOCC4)nc3-c3ccccc3)ccc2C(F)(F)F)n1 [Example 38, 3-(1-methyl-1H-pyrazol-3-yl)-N-(2-(2-morpholinoethyl)-4-phenylpyrimidin-5-yl)-4-(trifluoromethyl)benzamide] | 25
2 | O=C(Nc1cnc(CO)nc1-c1ccccc1)c1ccc(C(F)(F)F)c(-c2ncccn2)c1 [Example 39, N-(2-(Hydroxymethyl)-4-phenylpyrimidin-5-yl)-3-(pyrimidin-2-yl)-4-(trifluoromethyl)benzamide] | 70
3 | O=C(Nc1cnc(CO)nc1-c1ccccc1)c1ccc(C(F)(F)F)c(-c2cc[nH]n2)c1 [Example 40, N-(2-(hydroxymethyl)-4-phenylpyrimidin-5-yl)-3-(1H-pyrazol-3-yl)-4-(trifluoromethyl)benzamide] | 12
4 | Cn1ccc(-c2cc(C(=O)Nc3cnc(CNC(=O)OC(C)(C)C)nc3-c3ccccc3)ccc2C(F)(F)F)n1 [Example 41, t-Butyl ((5-(3-(1-methyl-1H-pyrazol-3-yl)-4-(trifluoromethyl)benzamido)-4-phenylpyrimidin-2-yl)methyl)carbamate] | 5
5 | Cn1ccc(-c2cc(C(=O)Nc3cnc(CN)nc3-c3ccccc3)ccc2C(F)(F)F)n1 [Example 42, N-(2-(Aminomethyl)-4-phenylpyrimidin-5-yl)-3-(1-methyl-1H-pyrazol-3-yl)-4-(trifluoromethyl)benzamide] | 21
6 | NCc1ncc(NC(=O)c2ccc(C(F)(F)F)c(-c3ccn(C(F)F)n3)c2)c(-c2ccccc2)n1 [Example 43] | 55
7 | Cc1ncc(NC(=O)c2ccc(C(F)(F)F)c(-c3ccn(C)n3)c2)c(-c2cccc(CO)c2)n1 [Example 44, N-(4-(3-(Hydroxymethyl)phenyl)-2-methylpyrimidin-5-yl)-3-(1-methyl-1H-pyrazol-3-yl)-4-(trifluoromethyl)benzamide] | 20
8 | CNCc1ncc(NC(=O)c2ccc(C(F)(F)F)c(-c3ccn(C)n3)c2)c(-c2ccccc2)n1 [Example 45] | 16
9 | Cc1nc(CO)c(NC(=O)c2ccc(C(F)(F)F)c(-c3ccn(C)n3)c2)c(-c2ccccc2)n1 [Example 46, N-(4-(Hydroxymethyl)-2-methyl-6-phenylpyrimidin-5-yl)-3-(1-methyl-1H-pyrazol-3-yl)-4-(trifluoromethyl)benzamide] | 24
10 | Cn1ccc(-c2cc(C(=O)Nc3ccc(C(C)(C)O)nc3-c3ccccc3)ccc2C(F)(F)F)n1 [Example 47, N-(6-(2-hydroxypropan-2-yl)-2-phenylpyridin-3-yl)-3-(1-methyl-1H-pyrazol-3-yl)-4-(trifluoromethyl)benzamide] | 1.3
11 | C[C@H](O)C(=O)NCc1ncc(NC(=O)c2cc(-c3ccn(C)n3)c(C(F)(F)F)cc2F)c(-c2ccccc2)n1 [Example 48] | 1.1
12 | CC(=O)NCc1ncc(NC(=O)c2ccc(C(F)(F)F)c(-c3ccn(C)n3)c2)c(-c2ccccc2)n1 [Example 49, N-(2-(acetamidomethyl)-4-phenylpyrimidin-5-yl)-3-(1-methyl-1H-pyrazol-3-yl)-4-(trifluoromethyl)benzamide] | 3.6
13 | Cn1ccc(-c2cc(C(=O)Nc3cnc(CNC(=O)CO)nc3-c3ccccc3)ccc2C(F)(F)F)n1 [Example 50, N-(2-((2-hydroxyacetamido)methyl)-4-phenylpyrimidin-5-yl)-3-(1-methyl-1H-pyrazol-3-yl)-4-(trifluoromethyl)benzamide] | 3.6
14 | Cn1ccc(-c2cc(C(=O)Nc3cnc(CNC(=O)C4CC4)nc3-c3ccccc3)ccc2C(F)(F)F)n1 [Example 51, N-(2-(cyclopropanecarboxamidomethyl)-4-phenylpyrimidin-5-yl)-3-(1-methyl-1H-pyrazol-3-yl)-4-(trifluoromethyl)benzamide] | 4.9
15 | Cn1ccc(-c2cc(C(=O)Nc3cnc(CNC(=O)CO)nc3-c3ccccc3)c(F)cc2C(F)(F)F)n1 [Example 52, 2-fluoro-N-(2-((2-hydroxyacetamido)methyl)-4-phenylpyrimidin-5-yl)-5-(1-methyl-1H-pyrazol-3-yl)-4-(trifluoromethyl)benzamide] | 1.6
16 | Cn1ccc(-c2cc(C(=O)Nc3ccc(CNC(=O)CO)nc3-c3ccccc3)ccc2C(F)(F)F)n1 [Example 53, N-(6-((2-hydroxyacetamido)methyl)-2-phenylpyridin-3-yl)-3-(1-methyl-1H-pyrazol-3-yl)-4-(trifluoromethyl)benzamide] | 5.7
17 | CC(=O)NCc1ncc(NC(=O)c2cc(-c3cc[nH]n3)c(C(F)(F)F)cc2F)c(-c2ccccc2)n1 [Example 54, N-(2-(acetamidomethyl)-4-phenylpyrimidin-5-yl)-2-fluoro-5-(1H-pyrazol-3-yl)-4-(trifluoromethyl)benzamide] | 9.3
18 | Cn1ccc(-c2cc(C(=O)Nc3cnc(CNC(=O)CO)cc3-c3ccccc3)ccc2C(F)(F)F)n1 [Example 55, N-(6-((2-hydroxyacetamido)methyl)-4-phenylpyridin-3-yl)-3-(1-methyl-1H-pyrazol-3-yl)-4-(trifluoromethyl)benzamide] | 14
19 | C[C@H](O)C(=O)NCc1ccc(NC(=O)c2cc(-c3ccn(C)n3)c(C(F)(F)F)cc2F)c(-c2ccccc2)n1 [Example 56, (S)-2-fluoro-N-(6-((2-hydroxypropanamido)methyl)-2-phenylpyridin-3-yl)-5-(1-methyl-1H-pyrazol-3-yl)-4-(trifluoromethyl)benzamide] | 0.45
20 | Cn1ccc(-c2cc(C(=O)Nc3ccc(CNC(=O)[C@@H]4CCC(=O)N4)nc3-c3ccccc3)c(F)cc2C(F)(F)F)n1 [Example 57, (S)-N-((5-(2-fluoro-5-(1-methyl-1H-pyrazol-3-yl)-4-(trifluoromethyl)benzamido)-6-phenylpyridin-2-yl)methyl)-5-oxopyrrolidine-2-carboxamide] | 1.1
21 | COCC(=O)NCc1ccc(NC(=O)c2cc(-c3ccn(C)n3)c(C(F)(F)F)cc2F)c(-c2ccccc2)n1 [Example 58, 2-fluoro-N-(6-((2-methoxyacetamido)methyl)-2-phenylpyridin-3-yl)-5-(1-methyl-1H-pyrazol-3-yl)-4-(trifluoromethyl)benzamide] | 0.19
22 | Cn1ccc(-c2cc(C(=O)Nc3ccc(CNC(=O)CS(C)(=O)=O)nc3-c3ccccc3)c(F)cc2C(F)(F)F)n1 [Example 59, 2-fluoro-5-(1-methyl-1H-pyrazol-3-yl)-N-(6-((2-(methylsulfonyl)acetamido)methyl)-2-phenylpyridin-3-yl)-4-(trifluoromethyl)benzamide] | 0.23
23 | C[C@@H](O)C(=O)NCc1ncc(NC(=O)c2cc(-c3ccn(C)n3)c(C(F)(F)F)cc2F)c(-c2ccccc2)n1 [Example 60, (R)-2-fluoro-N-(2-((2-hydroxypropanamido)methyl)-4-phenylpyrimidin-5-yl)-5-(1-methyl-1H-pyrazol-3-yl)-4-(trifluoromethyl)benzamide] | 1.1
24 | COCC(=O)NCc1ncc(NC(=O)c2cc(-c3ccn(C)n3)c(C(F)(F)F)cc2F)c(-c2ccccc2)n1 [Example 64, 2-fluoro-N-(2-((2-methoxyacetamido)methyl)-4-phenylpyrimidin-5-yl)-5-(1-methyl-1H-pyrazol-3-yl)-4-(trifluoromethyl)benzamide] | 0.44
